Tested on: indomethacin induced gastric damage
Test: Anti-ulcer activity: inhibition of indomethacin induced gastric damage in the rat
Format: in vivo
Details: 100 mg/kg orally, 30 minutes prior to indomethacin 15 mg/kg s.c.; score scale 1-9 after 4 hours; vehicle control 3.71 ± 0.80; P<0.01 (Mann Witney test)
Procedure: Anti-ulcer activity was assessed by the inhibition of indomethacin induced gastric damage in the rat according to the method of Eleghe (1974) Israeli J. Med. Sci. 10. 1451. Rats were starved overnight and given 15 mg/kg indomethacin subcutaneously and sacrificed 4 hours later. Stomachs were reflated with n. saline, cut along the greater curvature pinned out and scored for gastric damage by the following system:
Score 1-3--according to degree of erythema and slight haemorrhage.
Score 4-6--according to degree of muscosal erosion.
Score 7-9--according to depth of gastric damage.
Groups of 7 rats were used for each treatment and the test compound or vehicle were administered 30 minutes prior to giving the indomethacin. Dose of test compound was 100 mg/kg orally and control groups receiving vehicle only were obtained using the above scoring system and the Mann Witney test applied for significance of difference between the values obtained with the treatments.

Q: How did the “Test Compound Mean Score ± S.E. of Mean (gastric damage)” value turn out when CCCCCCC(C)(O)CCN1CN(C)C(=O)C1CCCCCCC(=O)OC (stereo not shown) [Compound 6, 1-(3'-hydroxy-3'-methyl-n-nonyl)-3-methyl-5-(6"-methoxycarbonyl-n-hexyl)-4-imidazolidone] was run?
A: 0.71 ± 0.42

From patent publication US4246273A, “1,5-Disubstituted imidazolid-4-ones” (Beecham Group Limited, priority 1978, dated 1981)
